In brackets after ≈: the same amount, converted by molar mass. No end group written: not given here.
What was measured:
E. faecium D14 = test: microbe, parasite or virus in culture; format: cell-based, Enterococcus faecium; details: Enterococcus faecium, D14, read-out: MIC D14
Description: (§1) To determine the MICs of peptides, we used the broth microdilution method described by the Clinical and Laboratory Standards Institute. We made serial dilutions of 10× concentration (10 µL) for each peptide in duplicates in 96-well plates (Cat No. 3595, Corning, New York, NY, USA). We added 90 µL of logarithmic-phase bacteria at 5 × 10^5 CFU/mL (in BHI media) to the peptides and then incubated the plates at 37 °C for 18 h. We measured the OD600 absorbance readings using the Spectra Max i3x spectrophotometer (Molecular Devices, San Jose, CA, USA) and determined the MIC as the peptide concentration that inhibits the growth of bacteria.

E. faecium D24 = test: microbe, parasite or virus in culture; format: cell-based, Enterococcus faecium; details: Enterococcus faecium, D24, read-out: MIC D24
Description: as §1

E. faecium D25 = test: microbe, parasite or virus in culture; format: cell-based, Enterococcus faecium; details: Enterococcus faecium, D25, read-out: MIC D25
Description: as §1

E. faecium D29 = test: microbe, parasite or virus in culture; format: cell-based, Enterococcus faecium; details: Enterococcus faecium, D29, read-out: MIC D29
Description: as §1

E. faecium E007 = test: microbe, parasite or virus in culture; format: cell-based, Enterococcus faecium; details: Enterococcus faecium, E007, read-out: MIC E007
Description: as §1

E. faecium strain C68 [1] = test: microbe, parasite or virus in culture; format: cell-based, Enterococcus faecium; details: for MIC EF C68 / MIC Media Only: strain C68, 18 h
Description: as §1

E. faecium WC176 = test: organism not typed; format: cell-based, Enterococcus faecium; details: read-out: MIC WC176
Description: as §1

S. aureus MW2 = test: microbe, parasite or virus in culture; format: cell-based, Staphylococcus aureus; details: for MIC S. aureus MW2: MW2, 18 h
Description: as §1

E. faecalis MMH594 = test: microbe, parasite or virus in culture; format: cell-based; details: for MIC E. faecalis MMH594: MMH594, 18 h
Description: as §1

E. faecalis V583 = test: microbe, parasite or virus in culture; format: cell-based; details: for MIC E. faecalis V583: V583, 18 h
Description: as §1

E. faecalis OG1RF = test: MIC assay, E. faecalis OG1RF; format: cell-based; details: rifampin and fusidic acid resistant
Description: as §1

[2] = HPLC retention time on C18 reverse-phase column; format: physicochemical
Source text: Table 1 Physical parameters and the minimal inhibitory concentration (µg/mL) of designed peptides against E. faecium. | column: rT ^f (min)

[3] = tested on: E. faecium strain C68 on porcine skin; test: Ex vivo porcine skin infection assay; parameters: species or system Enterococcus faecium; details: exponential cells
Source text: We evaluated the efficacy of designed lactoferrin AMPs in an ex vivo porcine skin model previously described with minor modifications. We first cleaned the shaved porcine skin (Fisher Scientific, Hampton, NH, USA) with 70% ethanol and then water, and glued polyethylene tubing (5 mm) (Nalgene VWR 228-0170, Radnor, PA, USA) to the skin samples with cyanoacrylate glue (Fisher Scientific, Hampton, NH, USA). Using disposable razors, we cut each piece of skin glued to the tube and inserted it into a 12-well tissue culture plate (Falcon, Cat No. 353182). We infected each skin with 1 × 10^6 CFU of exponential or persister E. faecium strain C68 cells in a total volume of 10 µL. Following an incubation of 1 h at 37 °C, we treated the skin with 50 µL with 5L and 6L at concentrations of 10× or 1× MIC. After an additional 4 h of incubation at 37 °C, we washed each tubing well with 250 µL of PBS (pH 7.4) containing 0.05% Triton X-100 to remove bacteria. After serially diluting the bacterial sample, we counted their CFUs.

E. faecium strain C68 [4] = test: microbe, parasite or virus in culture; format: cell-based, Enterococcus faecium; details: strain C68, 18 h
Description: as §1
To investigate the activity of peptides in various salt concentrations, we included physiologically relevant salts in the BHI medium.

Compound: CN[C@H](CC(C)C)C(=O)N[C@H]1C(=O)N[C@@H](CC(N)=O)C(=O)N[C@H]2C(=O)N[C@H]3C(=O)N[C@H](C(=O)N[C@H](C(=O)O)c4cc(O)cc(O)c4-c4cc3ccc4O)[C@H](O)c3ccc(c(Cl)c3)Oc3cc2cc(c3O[C@@H]2O[C@H](CO)[C@@H](O)[C@H](O)[C@H]2O[C@H]2C[C@](C)(N)[C@H](O)[C@H](C)O2)Oc2ccc(cc2Cl)[C@H]1O [Vancomycin, reference compound]
- MIC (E. faecium D14): 2 µg/mL (≈ 1.38 µM)
- MIC (E. faecium D24): 1 µg/mL (≈ 0.69 µM)
- MIC (E. faecium D25): 1 µg/mL (≈ 0.69 µM)
- MIC (E. faecium D29): 1 µg/mL (≈ 0.69 µM)
- MIC (E. faecium E007): 1 µg/mL (≈ 0.69 µM)
- MIC (E. faecium strain C68 [1]; Enterococcus faecium, C68, 18 h, read-out: MIC EF C68): > 32 µg/mL
- MIC (E. faecium WC176): 16 µg/mL (≈ 11 µM)
- MIC (S. aureus MW2; Staphylococcus aureus, MRSA, read-out: MIC S. aureus MW2): 1 µg/mL (≈ 0.69 µM)
- MIC (E. faecalis MMH594; Enterococcus faecalis, MMH594, read-out: MIC E. faecalis MMH594): > 32 µg/mL
- MIC (E. faecalis V583; Enterococcus faecalis, V583, read-out: MIC E. faecalis V583): > 32 µg/mL
- MIC (E. faecalis OG1RF; Enterococcus faecalis, OG1RF): > 32 µg/mL

Compound: RRWLWRL-NH2 [Peptide 2L]
- MIC EF C68 (E. faecium strain C68 [1]): >32 µg/mL
- MIC Media Only (E. faecium strain C68 [1]): >32 µg/mL
- MIC S. aureus MW2 (S. aureus MW2): > 32 µg/mL
- MIC E. faecalis MMH594 (E. faecalis MMH594): > 32 µg/mL
- MIC E. faecalis V583 (E. faecalis V583): > 32 µg/mL
- MIC E. faecalis OG1RF (E. faecalis OG1RF): > 32 µg/mL
- rT (HPLC retention time) [2]: 13.321 min

Compound: CNC(C)C1CCC(N)C(OC2C(N)CC(N)C(OC3OCC(C)(O)C(NC)C3O)C2O)O1 (stereo not drawn) [Gentamicin, reference compound]
- bacterial burden, control antibiotic [3]: ineffective in reducing the bacterial burden

Compound: RLWLWRRRWLWR-NH2 [Peptide 4L]
- MIC EF C68 (E. faecium strain C68 [1]): 4 µg/mL
- MIC Media Only (E. faecium strain C68 [1]): 4 µg/mL
- MIC + CaCl2 (2.5 mM) (E. faecium strain C68 [4]): >32 µg/mL
- MIC + MgSO4 (1 mM) (E. faecium strain C68 [4]): 8 µg/mL
- MIC + NaCl (150 mM) (E. faecium strain C68 [4]): 8 µg/mL
- MIC + ZnSO4 (8 µM) (E. faecium strain C68 [4]): 4 µg/mL
- MIC S. aureus MW2 (S. aureus MW2): > 32 µg/mL
- MIC E. faecalis MMH594 (E. faecalis MMH594): > 32 µg/mL
- MIC E. faecalis V583 (E. faecalis V583): > 32 µg/mL
- MIC E. faecalis OG1RF (E. faecalis OG1RF): > 32 µg/mL
- rT (HPLC retention time) [2]: 18.377 min
